Columns and labels:
AMPA receptor [1] = test: Radioligand binding: [^3 H]AMPA binding with crude membranes of rat forebrain
Method: (§1) The formula I compounds were tested for their ability to inhibit NMDA, AMPA, and kainic acid receptor binding to rat membranes in a radioligand binding assay using [^3 H]CGS19755, [^3 H]AMPA, and [^3 H]KA. For all radioligand binding assays, male Sprague-Dawley rats were used. […] Non-specific binding was determined using 10 μM L-glutamate. Samples were incubated in an ice-bath for 30 minutes, and bound ligand was separated from the free ligand by rapid filtration through WHATMAN GF/B glass fiber filters. Murphy et al, British J. Pharmacol., 95, 932-938 (1988). Kainate binding was performed using washed synaptosomal membranes from the rat forebrain as described by Simon et al. Simon et al, J. Neurochem., 26, 141-147 (1976). Tritiated kainate (5 nM) was added to 50 mM Tris-HCl buffer (pH 7.4 at 4° C.) containing 200-300 μg/ml of tissue protein. Samples were incubated for 30 minutes in an ice-bath, then rapidly filtered using a Brandel cell harvester and WHATMAN GF/C filters. Filters were washed twice with 3 ml of cold buffer. Non-specific binding was determined using 100 μM non-labeled kainate. The binding of [^3 H]AMPA (5 nM) was conducted with crude membranes of rat forebrain in the presence of 100 mM KSCN as described by Nielson et al. Nielson et al, Eur. J. Med. Chem. Chim. Ther., 21, 433-437 (1986). Non-specific binding was determined with 10 μM non-labeled AMPA. The concentration of the formula I compound that inhibited 50% binding (IC50, mean ±standard error, n=3) as calculated by linear regression of displacement data transformed to the Hill equation as described by Bennett. Bennett, Neurotransmitter Receptor Binding, 57-90 (1978).

AMPA receptor [2] = test: Antagonism of AMPA-induced depolarization of rat cortical wedges; format: cell-based
Method: (§2) The depolarization of rat cortical wedges was used to test the selectivity and potency of the formula I compounds as AMPA antagonists using a technique similar to that described by Harrison and Simmonds. Harrison and Simmonds, Bri. J. Pharmacol., 84, 381-391 (1984). Generally, 4-ml aliquots of NMDA (40 μM), AMPA (40 μM), and kainate (10 μM) were superfused (2 ml/min.) on the grey matter at intervals of 15-20 minutes until stable responses were attained. The tissue was then exposed for 15 minutes to various concentrations of the formula I compounds before retesting the agonists. The IC50 values were calculated from linear regression of log dose-response curves, each point the mean of at least three observations on separate slices from more than one animal.

[3] = target: kainic acid (KA) receptor; test: Radioligand binding: tritiated kainate binding with washed synaptosomal membranes from the rat forebrain; conditions: tritiated kainate 5 nM, pH 7.4, mean ± standard error (n = 3), values marked ^c single experiment
Method: as §1

[4] = target: kainic acid (KA) receptor; test: Antagonism of kainate-induced depolarization of rat cortical wedges; format: cell-based; conditions: kainate 10 μM, mean ± standard error (n = 3)
Method: as §2

NMDA receptor [5] = test: Radioligand binding: displacement of [^3 H]CGS19755 from synaptosomal membranes of rat forebrain (NMDA receptor affinity); conditions: [^3 H]CGS19755 10 nM, mean ± standard error (n = 3), values marked ^c single experiment
Method: as §1

NMDA receptor [6] = test: Antagonism of NMDA-induced depolarization of rat cortical wedges; format: cell-based; conditions: NMDA 40 μM, mean ± standard error (n = 3), read-out: IC50 NMDA, antagonism of cortical wedge depolarization
Method: as §2

[7] = Table I, racemic, [^3 H]AMPA 5 nM, 100 mM KSCN, mean ± standard error (n = 3), values marked ^c single experiment, read-out: IC50 AMPA, receptor binding
[8] = text summary of Table I, racemic, read-out: selectively displaced ^3 H-AMPA with IC50 values
[9] = Table III; cortical wedge; racemic
[10] = Table III; racemic; AMPA 40 μM; mean ± standard error (n = 3); read-out: IC50 AMPA, antagonism of cortical wedge depolarization
[11] = Table II, enantiopure, [^3 H]AMPA 5 nM, 100 mM KSCN, mean ± standard error (n = 3), values marked ^c single experiment, read-out: IC50 AMPA, receptor binding
[12] = Table IV; enantiopure; AMPA 40 μM; mean ± standard error (n = 3); read-out: IC50 AMPA, antagonism of cortical wedge depolarization

Compound | IC50 (AMPA receptor [1]; [7]) [µM] | IC50 (AMPA receptor [2]; [10]) [µM] | IC50 KA, receptor binding ([3]; Table I, racemic) [µM] | IC50 (NMDA receptor [5]; Table I, racemic) [µM] | IC50 (NMDA receptor [6]; Table III, racemic) [µM] | further results
O=C(O)[C@@H]1C[C@H]2C[C@@H](CS(=O)(=O)c3ncn[nH]3)CC[C@H]2CN1 (racemic) [Compound 15, (3SR,4aRS,6SR,8aRS)-6-[(1(2-4)H-1,2,4-Triazole-5-yl)sulfonylmethyl]decahydroisoquinoline-3-carboxylic Acid] | 1.67 ± 0.14 | 2.16 ± 0.79 | > 100 | > 100 | > 100 | IC50 (AMPA receptor [1]; [8]): < 15 µM; selective AMPA receptor antagonism (in words) (AMPA receptor [2]; [9]): selective AMPA receptor antagonists; IC50 KA, antagonism of cortical wedge depolarization ([4]; Table III, racemic): Ca. 10 μM
O=C(O)[C@@H]1C[C@H]2C[C@H](CCSc3nnn[nH]3)CC[C@H]2CN1 (racemic) [Compound 8, (3SR,4aRS,6RS,8aRS)-6-[3-(1(2)H-Tetrazole-5-yl)-3-thiaprop-1-yl]decahydroisoquinoline-3-carboxylic Acid] | 10.6 ± 2 | 6.8 ± 1.5 | 28.76 ± 2.21 | 49.2 ± 1.86 | > 100 | IC50 KA, antagonism of cortical wedge depolarization ([4]; Table III, racemic): 18.1 ± 5.1 µM
O=C(O)[C@@H]1C[C@H]2C[C@@H](CSc3nn[nH]n3)CC[C@H]2CN1 [Compound 23] | – | – | – | – | – | IC50 (AMPA receptor [1]; [11]): 0.58 ± 0.03 µM; IC50 (AMPA receptor [2]; [12]): 1.35 ± 0.35 µM; IC50 KA, receptor binding ([3]; Table II, enantiopure): 12.5 µM; IC50 KA, antagonism of cortical wedge depolarization ([4]; Table IV, enantiopure): > 31.6 µM; IC50 (NMDA receptor [5]; Table II, enantiopure): 16.3 µM; IC50 (NMDA receptor [6]; Table IV, enantiopure): 22.9 ± 3.8 µM
O=C(O)[C@H]1C[C@@H]2C[C@H](CSc3nn[nH]n3)CC[C@@H]2CN1 [Compound 24] | – | – | – | – | – | IC50 (AMPA receptor [1]; [11]): 21.9 µM; IC50 (AMPA receptor [2]; [12]): 19.8 ± 2.2 µM; IC50 KA, receptor binding ([3]; Table II, enantiopure): > 100 µM; IC50 KA, antagonism of cortical wedge depolarization ([4]; Table IV, enantiopure): > 31.6 µM; IC50 (NMDA receptor [5]; Table II, enantiopure): > 10 µM; IC50 (NMDA receptor [6]; Table IV, enantiopure): > 100 µM
O=C(O)[C@@H]1C[C@H]2C[C@H](CSc3nnn[nH]3)CC[C@H]2CN1 (racemic) [Compound 5, (3SR,4aRS,6RS,8aRS)-6-[2-(1(2)H-Tetrazole-5-yl)-2-thiaethyl]decahydroisoquinoline-3-carboxylic Acid] | 4.9 ± 0.4 | 6.1 ± 1.5 | 37.3 ± 2.3 | 47.9 ± 3.9 | > 100 | IC50 (AMPA receptor [1]; [8]): < 15 µM; selective AMPA receptor antagonism (in words) (AMPA receptor [2]; [9]): selective AMPA receptor antagonists; IC50 KA, antagonism of cortical wedge depolarization ([4]; Table III, racemic): > 100 µM
O=C(O)[C@@H]1C[C@H]2C[C@@H](COCc3nnn[nH]3)CC[C@H]2CN1 (racemic) [Compound 7, (3SR,4aRS,6SR,8aRS)-6-[(1(2)H-Tetrazole-5-yl)methoxymethyl]decahydroisoquinoline-3-carboxylic Acid] | > 10 | 16 ± 1.4 | > 10 | > 10 | > 100 | IC50 KA, antagonism of cortical wedge depolarization ([4]; Table III, racemic): > 100 µM
O=C(O)[C@H]1C[C@@H]2C[C@H](CS(=O)(=O)c3nc[nH]n3)CC[C@@H]2CN1 [Compound 27, (3R,4aS,6R,8aS)-6-[(1(2-4)H-1,2,4-Triazole-5-yl)sulfonylmethyl]decahydroisoquinoline-3-carboxylic Acid] | – | – | – | – | – | IC50 (AMPA receptor [1]; [11]): 23.6 µM; IC50 KA, receptor binding ([3]; Table II, enantiopure): > 100 µM; IC50 (NMDA receptor [5]; Table II, enantiopure): 60.9 µM
O=CN(Cc1nnn[nH]1)[C@H]1CC[C@H]2CN[C@H](C(=O)O)C[C@@H]2C1 (racemic) [Compound 3, (3SR,4aRS,6SR,8aRS)-6-[N-(1(2)H-Tetrazole-5-yl)methylformamido]-decahydroisoquinoline-3-carboxylic Acid] | 29.1 | – | > 100 | > 100 | – | –
CC(Cc1nn[nH]n1)[C@H]1CC[C@H]2CN[C@H](C(=O)O)C[C@H]2C1 (stereo partly drawn) [Compound 18, (3SR,4aRS,6RS,8aRS)-6-[2-(1(2)H-Tetrazole-5-yl)-1-methylethyl]decahydroisoquinoline-3-carboxylic Acid] | 3.37 | – | 28.2 | 43.1 | – | IC50 (AMPA receptor [1]; [8]): < 15 µM
O=C(O)[C@@H]1C[C@H]2C[C@H](CCc3nn[nH]n3)CC[C@H]2CN1 (relative stereo) [Compound 2, (3SR,4aRS,6SR,8aRS)-6-[2-(1(2)H-Tetrazole-5-yl)ethyl]decahydroisoquinoline-3-carboxylic Acid] | 59.6 ± 4.3 | – | 180.0 ± 22.1 | 60.6 ± 24.8 | > 100 | –
O=C(O)[C@@H]1C[C@H]2C[C@@H](CS(=O)(=O)c3nc[nH]n3)CC[C@H]2CN1 [Compound 26, (3S,4aR,6S,8aR)-6-[(1(2-4)H-1,2,4-Triazole-5-yl)sulfonylmethyl]decahydroisoquinoline-3-carboxylic Acid] | – | – | – | – | – | IC50 (AMPA receptor [1]; [11]): 0.63 µM; IC50 KA, receptor binding ([3]; Table II, enantiopure): > 100 µM; IC50 (NMDA receptor [5]; Table II, enantiopure): > 100 µM
O=C(CC[C@H]1CC[C@H]2CN[C@H](C(=O)O)C[C@H]2C1)Nc1nn[nH]n1 (relative stereo) [Compound 17, (3SR,4aRS,6RS,8aRS)-6-[2-(N-(1(2)H-Tetrazole-5-yl)carboxamido)ethyl]decahydroisoquinoline-3-carboxylic Acid] | 45.7 | – | > 100 | > 100 | – | –
O=C(O)[C@@H]1C[C@H]2C[C@@H](CCCc3nnn[nH]3)CC[C@H]2CN1 (racemic) [Compound 6, (3SR,4aRS,6SR,8aRS)-6-[(1(2)H-Tetrazole-5-yl)prop-1-yl]decahydroisoquinoline-3-carboxylic Acid] | 16.8 ± 0.46 | 22 ± 3.8 | 18.65 ± 0.33 | 27 ± 9.9 | – | –
O=C(O)[C@@H]1C[C@H]2C[C@@H](CCCCc3nnn[nH]3)CC[C@H]2CN1 (racemic) [Compound 10, (3SR,4aRS,6SR,8aRS)-6-[(1(2)H-Tetrazole-5-yl)but-1-yl]decahydroisoquinoline-3-carboxylic Acid] | 32 | 27.6 ± 3.1 | > 100 | > 100 | > 100 | –
O=C(O)[C@@H]1C[C@H]2C[C@@H](CCc3nn[nH]n3)CC[C@H]2CN1 (relative stereo) [Compound 1, (3 SR,4aRS,6RS,8aRS)-6-[2-(1(2)H-Tetrazole-5-yl)ethyl]decahydroisoquinoline-3-carboxylic Acid] | – | 6 ± 1 | 246.98 ± 7.5 | 26.4 ± 1.95 | 61.3 ± 3 | IC50 KA, antagonism of cortical wedge depolarization ([4]; Table III, racemic): 31.7 ± 4.4 µM
O=C(O)[C@@H]1C[C@H]2C[C@H](CCc3nn[nH]n3)CC[C@H]2CN1 [Compound 22, (3S,4aR,6S,8a,R)-6-[2-(1(2)H-Tetrazole-5-yl)ethyl]decahydroisoquinoline-3-carboxylic Acid] | – | – | – | – | – | IC50 (AMPA receptor [1]; [11]): 15.3 µM; IC50 (AMPA receptor [2]; read-out: IC50 AMPA, antagonism of cortical wedge depolarization; Table IV; enantiopure; AMPA 40 μM; mean ± standard error (n = 3)): 21.9 ± 3.3 µM; IC50 KA, receptor binding ([3]; Table II, enantiopure): 85.3 µM; IC50 KA, antagonism of cortical wedge depolarization ([4]; Table IV, enantiopure): 28.9 ± 9.2 µM; IC50 (NMDA receptor [6]; Table IV, enantiopure): > 100 µM
CS(=O)(=O)NC(=O)CC[C@H]1CC[C@H]2CN[C@H](C(=O)O)C[C@H]2C1 (relative stereo) [Compound 16, (3SR,4aRS,6RS,8aRS)-6-[2-((N-Methanesulfonyl)carboxamido)ethyl]decahydroisoquinoline-3-carboxylic Acid] | 80 | – | > 100 | > 100 | – | –
